Data on two molecules can be found in patent US8768431B2, “Systems and methods for tissue imaging” (The Regents of the University of Michigan, priority 2007, dated 2014).

Assay [1] deals with 9L tumors. Nature of the assay: fDM / diffusion MRI of intracerebral 9L tumors after BCNU. In kind it is in vivo, rat. The conditions noted are these: for group mean VR: ±SEM. The protocol:
(§1) Intracranial Tumor Implantation. All animal works were carried out in the animal facility of the University of Michigan (Ann Arbor, Mich.) in accordance with federal, local, and institutional guidelines. Intracerebral brain tumors were implanted in male Fischer 344 rats (Charles River Breeding Laboratories, Wilmington, Mass.) weighing between 125 and 150 g. Animals were anesthesized by intraperitoneal administration of a ketamine (87 mg/kg)/xylazine (13 mg/kg) mixture. A small skin incision was made over the right hemisphere, and a 1-mm-diameter burr hole was drilled through the skull. A sterile suspension of 1×10^5 9L cells in 5 μl of serum-free medium was introduced through a 27-gauge needle inserted to a depth of 3 mm. Rats were allowed to recover after tilling the burr hole with bone wax and suturing the skin closed.
(§2) Chemotherapy. Thirty-three animals with 9L tumors were entered into the study. When in vivo tumor volumes had reached […] were divided into four groups. Group 1 received 0.1 ml of drug vehicle (10% ethanol) and was used as a control group (n=7). Groups 2 to 4 received 6.65 mg/kg BCNU (n=7), 13.3 mg/kg BCNU (n=11), and 26.6 mg/kg BCNU (n=8), respectively, diluted in 10% ethanol. All treatments were administered by a single intraperitoneal injection on day 0. T2-weighted (T2, MRI transverse relaxation time) and diffusion MRI were performed every other day posttherapy to measure volumetric and cell density changes, respectively. Animal survival data were also obtained for all groups.
(§3) Diffusion MRI. Maps of tumor ADC values were acquired every other day up to 14 days posttherapy using a previously described method (see, e.g., Chenevert T L, et al., J Natl Cancer Inst. 2000; 92:2029-2036; herein incorporated by reference in its entirety). Briefly, a trace diffusion-weighted multislice spin echo sequence (with motion compensation and navigator echo) was used to acquire 13 slices with two different diffusion weightings [b1=100 sec/mm^2; b2=1248 sec/mm^2; image slice thickness=1 mm; image matrix=128×128 (0-256); field of view=30×30 mm; echo time=60 milliseconds]. During all MRI procedures, the animals were anesthesized with 1.5% isoflurane, and body temperature was maintained at 37° C. using a heated water-recirculating pad. The images acquired with b1 were essentially T2-weighted images, and these were used to segment the tumor from the normal brain for volumetric analysis using an “in-house” region drawing tool developed in MATLAB (Natick, Mass.).
Image Registration and fDM. An important part of fDM analysis is the registration of parametric ADC maps acquired posttherapy to baseline ADC maps acquired before treatment. Image registration was performed using an automated linear affine coregistration algorithm (MIAMI Fuse; University of Michigan, Ann Arbor, Mich.) to maximize mutual information between the two temporally distinct three-dimensional data sets (see, e.g., Meyer C R, et al., Med Image Anal. 1997; 1:195-206; herein incorporated by reference in its entirety). Following registration and tumor segmentation of voxels within the tumor both at baseline and on day 4, fDM statistics were calculated. Firstly, ADC values of voxels posttherapy were plotted as a function of baseline ADC values. These tumor voxels were then further segmented into three regions based on an upper threshold and a lower threshold of ADC change. That is, tumor voxels that had increased ADC above the upper threshold were region I (VR, red voxels), voxels that had decreased below the lower threshold were region 2 (VB, blue voxels), and all other voxels were region 3 (VG, green voxels). A comparison between treatment groups and the measurement of fDM dose dependence was accomplished to optimize the sensitivity of the thresholds used (±0.4×10^−9 m^2/sec). Normalized volumes were then calculated for each animal, and group statistics were calculated.

Assay [2] deals with 9L tumors. Description: Histopathology (H&E) of fDM regions of 9L tumors. The conditions noted are these: 6.67 mg/kg BCNU; ×40 objective. In kind it is in vivo, rat. The protocol: Histopathology. In a separate study consisting of eight animals, two animals per treatment group were imaged pretreatment and again at 6 to 7 days posttherapy. Following the second imaging session, animals were euthanized, and the brains were fixed in 10% paraformaldehyde. After 48 hours, fixed tissues were transferred to 70% ethanol and embedded in paraffin. Formalin-fixed paraffin-embedded specimens were serially sectioned and slide-mounted. Sections were stained with hematoxylin and eosin (H&E) and compared to fDMs.

The subject of another assay is 9L tumor cells. Nature of the assay: MRI tumor volume and log cell kill of 9L tumors. In kind it is in vivo, rat. The protocol: as §2, §3
(§4) Tumor Cell Kill Calculations and Statistical Analysis. The quantification of tumor cell kill from serially volumetric imaging data for each animal was accomplished as previously described (see, e.g., Ross B D, et al., Proc Natl Acad Sci USA. 1998; 95:7012-7017; herein incorporated by reference in its entirety). In brief, log(cell kill)[…]log10[Vpre/Vpost], where V represents the tumor volume from MRI. Linear least squares analysis was used to measure the statistical significance of trends in the BCNU dose dependence of fDM volume, animal survival, and log cell kill, and in the correlation of fDM response with survival and cell kill. When two groups were compared, a one-tailed Student's /test was used. Both linear least squares and Student's t test were performed using Microsoft Excel (Microsoft, Redmond, Wash.). To compare the median survival of all four animal groups, a log rank test was performed using Prism (GraphPad Software, Inc., San Diego, Calif.).

The subject of assay [3] is 9L tumors. Nature of the assay: Animal survival of rats with intracerebral 9L tumors. The format is in vivo, rat. As to conditions: for median survival: rat 9L tumors, control 7 days. The protocol: as §1, §2, §4
The test system of assay [4] is PC3^Luc metastatic bone lesions. Nature of the assay: MRI tumor volume of PC3Luc bone lesions. In kind it is in vivo, SCID mice. The source says:
(§5) Magnetic Resonance Imaging. […] For MRI examination, mice were anesthetized with a 2% […] and maintained at 37 C, using a heated water bed, inside a 9.4-T Varian MR scanner (120-mm clear horizontal bore, Varian, Palo Alto, Calif.) and a double-tuned volume radiofrequency coil. A trace diffusion-weighted multi-slice spin echo sequence was used to acquire 15 slices with two different diffusion weightings (b1=184 s/mm^2, =1106 s/mm^2, slice thickness=0.5 mm, image matrix64×128, field of view=15×15 mm; TE=40 ms, TR=3.5 s). The z-gadient first moment was zeroed to reduce the dominant source of motion artifact as well as a 32-point navigator echo was prepended to each phase-encode echo. The phase deviation of each navigator echo relative to their mean was subtracted from the respective image echoes prior to the phase-encode Fourier transform. Images were acquired prior to treatment and subsequently 2 times per week. The low b-factor images were essentially T2-weighted to allow tumor volume measurements. The tumor boundary was manually defined on each slice and then integrated across slices to provide a volume estimate.

The test system of the next assay is PC3^Luc tumor cells. Description: Bioluminescence imaging of PC3Luc metastatic prostate cancer model. In kind it is in vivo, SCID mice. As to conditions: docetaxel 40 mg/kg/wk×3, n=9; controls rose continuously. The protocol: Cell Lines. PC3 cells were transfected with a luciferase-encoding pLazarus retroviral construct using Fugene 6 (Roche Applied Science, Indianapolis, Ind.) as per manufacturer's instructions. Wildtype PC3 cells were cultured in RPMI-1640 supplemented with 10% FBS whereas transfected cells (PC3^Luc were maintained in selection media supplemented with 200 μg/ml G418 (Invitrogen; Carlsbad, Calif.).
(§6) Mice. Male SCID mice (Charles River Laboratories, Wilmington, Mass.) were housed in specific pathogen free rooms at The University of Michigan AAALAC, International accredited facilities. For implantation of PC3^Luc cells, mice were anesthetized with 1.75% isotluorane/air anesthesia and 2×10^5 cells in 100 μl of sterile Dulbecco's PBS lacking Ca^+2and Mg^+2 (DPBS) were administered into the left ventricle of the heart.
Bioluminescence Detection. […] Bioluminescence studies were initiated prior to treatment for baseline values and performed throughout the experiment. For these studies, mice were anesthetized with a 2% isofluorane/air mixture and given a single i.p. dose of 150 mg/kg D-luciferin (Promega; Madison, Wis.) in normal saline. […] Results were analyzed using Living Image® software provided with the Xenogen imaging system. Signal intensity was quantified as the sum of all detected photon counts within a uniform region-of-interest (ROI) manually placed during data post processing.

In assay [5] the test system is PC3^Luc metastatic bone lesions. Description: fDM analysis of metastatic bone lesions of PC3Luc model. The format is in vivo, SCID mice. The conditions noted are these: for percentage of increased ADC (fDM), representative treated animal: docetaxel 40 mg/kg/wk×3. As to the method: as §6, §5
Image Registration and fDM. An important part of fDM analysis is the registration of post-treatment ADC maps to baseline pretreatment ADC maps. Image registration was performed using an automated linear affine coregistration algorithm to maximize mutual information between the two temporally distinct three-dimensional data sets (see, e.g., Meyer C R, et al., Med Image Anal 1997; 1:195-206; herein incorporated by reference in its entirety). Following registration and segmentation of voxels within the tumor both at baseline and on day 4, fDM statistics were calculated (I-Response™, Cedara Software, Mississauga, Ontario). Firstly, ADC values of voxels post therapy were plotted as a function of baseline ADC values. These voxels were then further segmented into three regions based on an upper and lower threshold of ADC change. Tumor voxels with an ADC increase above the upper threshold were depicted as red, whereas voxels that had decreased below the lower threshold were depicted as blue.

[6] abbreviates: 6.65 mg/kg BCNU, day 4 posttreatment.
[7] abbreviates: 26.6 mg/kg BCNU, day 4 posttreatment.
[8] abbreviates: p<0.05, treated n=7 vs control n=5.

Regarding `O=NN(CCCl)C(=O)NCCCl` [BCNU], the “mean ADC change” value in the assay on 9L tumors [1] (6.65 mg/kg BCNU, day 4, control −0.8±2.7%) is 10.7±2.2%; in the assay with 9L tumors [1] (26.6 mg/kg BCNU, day 4), 49.0±9.7%. Also, the “group mean VR” value was 10.6±2.8% in the assay with 9L tumors [1] (6.65 mg/kg BCNU, day 4, control 3.9±1.7); 28.7±8.0% in the assay with 9L tumors [1] (13.3 mg/kg BCNU, day 4); 62.0 ±9.0% in the assay with 9L tumors [1] (26.6 mg/kg BCNU, day 4). The results for the “VB (tumor volume with decreased ADC), representative animal” value in the assay on 9L tumors [1] (setting [6]) and with 9L tumors [1] (setting [7]) were 2.6% and 0.3%, respectively. Further, the “VR (tumor volume with increased ADC), representative animal” value is 7.7% in the assay with 9L tumors [1] (setting [6]); 30% in the assay with 9L tumors [1] (13.3 mg/kg BCNU, day 4 posttreatment); 90.6% in the assay with 9L tumors [1] (setting [7]). The “mean ADC change (ΔADC)” value with 9L tumors [1] (13.3 mg/kg BCNU, day 4) was 22.9±5.3%. In the assay on 9L tumors [1] (day 4 posttreatment, threshold ±0.4×10^−9 m^2/sec, P=5.8×10^−6), the “best-fit gradient of VR as a function of drug dose” value was 2.30 ± 0.40 kg/mg. In the assay on 9L tumors [2], the “active mitoses in low-diffusion (VB) region” value is 153 mitoses in 10 high-power fields. Besides, the “mitoses in VR region” value in the assay on 9L tumors [2] is 96 mitoses in 10 high-power fields. In addition, the log cell kill in the assay with 9L tumor cells (6.65 mg/kg BCNU, control −0.09±0.04) is listed as −0.25±0.08; in the assay with 9L tumor cells (13.3 mg/kg BCNU), 1.28±0.18; in the assay with 9L tumor cells (26.6 mg/kg BCNU) it was 3.22±0.51. Also, the “gradient of least squares fit, normalized tumor volume as a function of dose” value in the assay on 9L tumor cells (4 days posttreatment, 0-26.6 mg/kg BCNU, P=0.004) is listed as −4.0±1.3. Moreover, the median survival in the assay on 9L tumors [3] (6.65 mg/kg BCNU single i.p.) is recorded as 13 days posttherapy; in the assay with 9L tumors [3] (13.3 mg/kg BCNU single i.p.), 23.5 days posttherapy; in the assay on 9L tumors [3] (26.6 mg/kg BCNU single i.p.), 35.5 days posttherapy. Moreover, the “animal survival relative to the control group” value in the assay with 9L tumors [3] (6.65-26.6 mg/kg BCNU, log rank P<0.05) is listed as “dose-dependent increase in animal survival”.
As to `CC(=O)O[C@@]12CO[C@@H]1C[C@H](O)[C@@]1(C)C(=O)[C@H](O)C3=C(C)[C@@H](OC(=O)[C@H](O)[C@@H](NC(=O)OC(C)(C)C)c4ccccc4)C[C@@](O)([C@@H](OC(=O)c4ccccc4)[C@H]21)C3(C)C` [docetaxel], the “MRI tumor volumes, outcome of therapy” value in assay [4] (control tumors kept growing, treated tumors did not) is recorded as “efficacious”. In addition, the “time at which tumor volumes differ significantly from control” value in assay [4] (setting [8]) is reported as 11 day post-treatment initiation. In the assay with PC3^Luc tumor cells, the “mean photon counts (luciferase activity)” value is listed as “remained stable throughout the experiment”. Moreover, the entries for the “percentage of increased ADC (fDM), representative treated animal” value in assay [5] (day 7 post initiation), in assay [5] (day 14 post initiation) and in assay [5] (day 18 post initiation) were 4.0%, 30.0% and 53.7%, respectively. In assay [5] (setting [8]), the “time at which fDM values differ significantly from control” value is 7 days post-treatment. Moreover, the “mean changes in tumor diffusion by fDM” value in assay [5] (three week treatment period, treated n=7) is “progressively increasing fDM diffusion changes”.
